Key:
B16 murine melanoma = assay: Tissue distribution in C57 BL6 mice bearing B16; type: in vivo, mouse; conditions: for elimination kinetics: compared with derivative A; for marker of the B16 murine melanoma: mouse, in vivo
Procedure: The study of the tissue distribution of the ^125 I labelled compounds was performed in mice bearing grafted melanomas (cf. autoradiograms above). […] The animals are sacrificed at different time intervals of 1 to 24 hours after the injection. The blood is collected and the principal organs are excised. Aliquots are weighed and the radioactivity of the samples is measured in a […] 1191 counter (analytic tracer). The counting yield for iodine 125 is 60%. The results are expressed: as a percentage of the injected dose bound per g of tissue (% ID/g); in the form of the ratios [formula] This ratio reflects more precisely the selectivity of a molecule for an organ (tables 2, 4, 6, 8, 10 and 12).

melanoma in man = conditions: in vivo; cited from earlier work
melanoma = conditions: in vivo; cited from earlier work
grafted tumors = conditions: animals bearing grafted tumors; cited from earlier work

Structure (SMILES) | elimination kinetics (B16 murine melanoma) | marker of the B16 murine melanoma (B16 murine melanoma) | further results
CN(C)CCNC(=O)c1ccc(I)cc1 [Derivative E] | more rapid elimination | markers of the B16 murine melanoma | possibility for use in scanning (B16 murine melanoma; between 3 h and 6 h after administration): possibilities for use in scanning between 3 h and 6 h
CC(C)N(CCNC(=O)c1ccc(I)cc1)C(C)C [Derivative G] | – | markers of the B16 murine melanoma | –
CN(C)CCCNC(=O)c1ccc(I)cc1 [Derivative J] | more rapid elimination | markers of the B16 murine melanoma | –
CCN(CC)CCCNC(=O)c1ccc(I)cc1 [Derivative L] | more rapid elimination | markers of the B16 murine melanoma | –
CC(C)NC(C)Cc1ccc([123I])cc1 (stereo not drawn) [^123 I-IMP] | – | – | detection of melanoma in man (melanoma in man): used for the detection of melanoma in man
O=C([O-])CC(O)(CC(=O)[O-])C(=O)[O-].[67Ga+3] [citrate of gallium 67] | – | – | elimination from the digestive tract (melanoma): very slow elimination from the digestive tract; localization in the liver and the kidney (melanoma): late and extensive localization in the liver and the kidney
O=c1[nH]c(=S)[nH]cc1I [iodothiouracil labelled with ^125 I, iodothiouracil] | – | – | localization and treatment of malignant melanoma (grafted tumors): promising agent for the localization and the treatment of malignant melanoma
